Experiment [1] in a line: Luminescence Cell-Based Dose Response HTS to Identify Activators of Luciferase Translation or Activity in H4 […] Cells. [Related pubchem assays: 1829 (Project Summary), 1814 (Primary HTS)]. It is filed as functional.
The nature of experiment [2]: Luminescence Cell-Based Dose Confirmation HTS to Identify Activators of 5'UTR Stem-Loop Driven Alpha-Synuclein mRNA Translation in H4 Neuroglioblastoma Cells. [Related pubchem assays: 1829 (Project Summary), 1814 (Primary HTS)]. It is filed as functional.
The test system of experiment [3] is H4. The experiment can be described thus: Luminescence Cell-Based Dose Response HTS to Identify Activators of 5'UTR Stem-Loop Driven Prion Protein mRNA Translation in H4 Neuroglioblastoma Cells. [Related pubchem assays: 1829 (Project Summary), 1814 (Primary HTS)]. It is filed as functional. The following applies: Homo sapiens.
The subject of experiment [4] is H9c2. The experiment can be described thus: cells. It is filed as functional, cell-based. Conditions: Rattus norvegicus, H9c2, Myocardium.
Experiment [5] in a line: NIH3T3 cell viability loss – ATP luminescence, mouse fibroblasts, counter-screen, dose response (AID 2010).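 Also: cells exposed to compound for about 90 hours before reading.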 It is filed as functional, cell-based.
A short description of experiment [6]: Trypanosoma cruzi growth suppression in host cells – NIH3T3 host cells, beta-gal luminescence, confirmation (AID 2044).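 Also: intracellular parasites grown in NIH/3T3 mouse fibroblasts as host cells; luminescent beta-galactosidase reporter signal from transgenic T. cruzi replicating inside host cells; inhibitors lower the luminescence signal.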 It is filed as functional, cell-based.
Experiment [7] relates to INS1. Put plainly: INS-1E survival protection against cytokine death – cell-based, luminescence, retest, dose response (AID 449756).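 Also: cell death triggered by IL-1 beta plus TNF-alpha plus IFN-gamma mixture; protective hits raise ATP signal compared with cytokine alone wells.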 It is filed as functional. Conditions: Rattus norvegicus.
The target of experiment [8] is T1, Zinc finger protein mex-5 (Caenorhabditis elegans, UniProt Q9XUB2).
T1 sequence (Q9XUB2 whole entry): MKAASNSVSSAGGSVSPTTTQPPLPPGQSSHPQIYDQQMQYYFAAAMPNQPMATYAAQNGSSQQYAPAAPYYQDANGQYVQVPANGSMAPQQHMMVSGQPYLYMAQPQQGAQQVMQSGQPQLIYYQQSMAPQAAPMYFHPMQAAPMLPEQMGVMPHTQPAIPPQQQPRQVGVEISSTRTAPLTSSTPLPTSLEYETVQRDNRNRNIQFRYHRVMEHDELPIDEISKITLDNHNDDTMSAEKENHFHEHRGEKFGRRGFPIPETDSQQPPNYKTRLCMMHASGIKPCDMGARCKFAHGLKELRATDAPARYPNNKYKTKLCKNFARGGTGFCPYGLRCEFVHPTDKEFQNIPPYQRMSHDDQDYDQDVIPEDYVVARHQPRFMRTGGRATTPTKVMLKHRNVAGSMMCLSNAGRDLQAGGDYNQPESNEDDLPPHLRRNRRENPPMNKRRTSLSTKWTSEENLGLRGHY
Put plainly: potency of MEX-5 RNA-binding blockers – biochemical, C. elegans, fluorescence polarization, dose response (AID 1960).

The target of experiment [9] is T2, RNA-binding protein pos-1 (Caenorhabditis elegans, UniProt G5EF15).
T2 sequence (G5EF15 whole entry): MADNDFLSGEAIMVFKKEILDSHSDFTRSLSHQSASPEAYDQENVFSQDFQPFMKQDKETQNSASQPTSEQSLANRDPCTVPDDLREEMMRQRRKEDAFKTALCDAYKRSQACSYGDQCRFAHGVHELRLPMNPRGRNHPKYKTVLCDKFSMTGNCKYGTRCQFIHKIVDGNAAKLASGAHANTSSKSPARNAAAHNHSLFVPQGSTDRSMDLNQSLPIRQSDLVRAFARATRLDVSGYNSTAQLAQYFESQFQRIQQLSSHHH
The experiment can be described thus: disruptors of C. elegans POS-1 RNA interaction – biochemical, fluorescence polarization, dose response (AID 1964).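 Also: purified POS-1 fused to maltose binding protein made in E. coli; potency of compounds blocking POS-1 binding to fluorescent RNA.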

In experiment [10] the target is T3, Cytochrome P450 3A4 (Homo sapiens, UniProt P08684). The following applies: Potency.
Experiment [11] has as its system Streptococcus sp. 'group A'. Put plainly: Streptococcus pyogenes SK(-)GAS viability under kanamycin – luminescence, BacTiterGlo, confirmation, counter-screen for streptokinase expression inhibitor project, dose response (AID 1900). It is filed as functional, organism-based.
Experiment [12] deals with T4, Streptokinase A (Streptococcus pyogenes serotype M1, UniProt P10520).
T4 sequence (P10520 whole entry): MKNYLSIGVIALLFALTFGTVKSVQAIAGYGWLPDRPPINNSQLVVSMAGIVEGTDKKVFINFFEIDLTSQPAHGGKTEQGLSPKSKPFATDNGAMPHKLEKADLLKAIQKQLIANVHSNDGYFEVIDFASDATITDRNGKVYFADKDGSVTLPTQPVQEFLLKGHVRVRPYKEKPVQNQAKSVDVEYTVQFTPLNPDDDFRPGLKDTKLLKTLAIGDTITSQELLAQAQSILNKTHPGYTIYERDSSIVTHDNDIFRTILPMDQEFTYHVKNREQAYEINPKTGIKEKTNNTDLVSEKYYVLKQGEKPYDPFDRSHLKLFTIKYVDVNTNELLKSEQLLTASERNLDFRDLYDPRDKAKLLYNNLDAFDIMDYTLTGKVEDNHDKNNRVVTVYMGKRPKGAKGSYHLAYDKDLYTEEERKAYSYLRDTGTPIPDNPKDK
Put plainly: viability-normalized secreted streptokinase activity reduction – plasminogen activation absorbance, OD405, dose response (AID 1914).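 Also: secreted streptokinase activity via plasminogen activation per viability signal from cell pellet.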 It is filed as functional, Streptococcus pyogenes M1 GAS.

Experiment [13] deals with Streptococcus. The experiment can be described thus: GAS UMAA2166 growth inhibition – luminescence, BacTiterGlo, counter-screen for streptokinase expression inhibitor project, dose response (AID 1915).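 Also: potency for reduction of bacterial viability or growth.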 It is filed as functional, organism-based.
Experiment [14] addresses T3, Cytochrome P450 3A4.

Each structure is given as a SMILES string. Active and inactive are the calls of the source. Rule as the data show it, for most assays here: actives have a measured EC50 and inactives only a lower limit. A value given as a limit tells only on which side of the number the result lay.
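For IC50 in this document: confirmatory concentration-response retest of ultra-high-throughput screening hits for modulation of myocardial damage; cell death induced by hydrogen peroxide oxidative stress; compound pretreatment for 60 min then peroxide exposure for 2 h; potency is for protecting the cells against peroxide damage rather than for killing them.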

T3 sequence (P08684 whole entry): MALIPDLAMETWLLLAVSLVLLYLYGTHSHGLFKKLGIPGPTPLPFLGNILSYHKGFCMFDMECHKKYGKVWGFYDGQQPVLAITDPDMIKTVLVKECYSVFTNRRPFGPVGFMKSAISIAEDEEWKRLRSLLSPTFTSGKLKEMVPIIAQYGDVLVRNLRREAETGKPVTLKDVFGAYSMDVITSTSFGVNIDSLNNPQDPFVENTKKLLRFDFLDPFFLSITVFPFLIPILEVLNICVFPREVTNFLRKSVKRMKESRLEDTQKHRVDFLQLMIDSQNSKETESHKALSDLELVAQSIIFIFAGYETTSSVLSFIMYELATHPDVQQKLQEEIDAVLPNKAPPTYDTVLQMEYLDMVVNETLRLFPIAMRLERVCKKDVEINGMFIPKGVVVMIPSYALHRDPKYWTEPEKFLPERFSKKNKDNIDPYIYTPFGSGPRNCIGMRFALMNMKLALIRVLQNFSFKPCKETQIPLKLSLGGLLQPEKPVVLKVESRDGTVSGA

With `CC(Cc1cccs1)NC(=O)NC1CCCCC1` (stereo not given), the EC50 in experiment [1] is 68.9 µM (active); in experiment [2], > 60 µM (not active); in [3], 39.8 µM (active).
Consider `CN(C)S(=O)(=O)c1ccc(NC(=O)COC(=O)Cn2[nH]c(=O)c3ccccc3c2=O)cc1`, for which the IC50 in experiment [4] is > 79 µM (inactive).
On to `Cn1nc(C(=O)Nc2nc(-c3ccccn3)cs2)c2ccccc2c1=O`, for which, in [4], the IC50 was > 79 µM (inactive).
Take `O=C(CSc1nc(O)c(Cc2ccccc2)c(O)n1)c1ccccc1`: the EC50 in [1] is > 120 µM (not active); in experiment [2] it was 14.7 µM (active); in experiment [3], 14.4 µM (active).
On to `Cc1cc(Nc2nc3ccccc3nc2Cl)n(-c2ccc([N+](=O)[O-])cc2)n1`, for which the values for the EC50 in experiment [5] and in [6] were > 60 µM (not active) and 2.24 µM (active), respectively. Besides, the AC50 in [7] was 8.83 µM (active).
Consider `O=C(NNC(=O)c1ccccc1O)c1ccco1`, for which the half-maximal effective concentration (EC50) was 19.4 µM (active) in experiment [8] and 24 µM (active) in [9].
As to `Cc1ccc2[nH]c(SCc3nc(O)c4ccccc4n3)nc2c1`, in [4], the IC50 was > 79 µM (inactive).
Take `N#CC1=C(N)OC2=C(C(=O)CCC2)C12C(=O)N1CCCc3cccc2c31` (stereo not given): the EC50 in experiment [8] and in experiment [9] was > 300 µM (not active) in each case.
Consider `CCCc1cc(C(=O)NCC(C)C)no1`, for which the EC50 in experiment [1] was 22.9 µM (active); in [2], 14.8 µM (active).
Turning to `COC(c1ccccc1)C(C)C(OC)C(C)C(OC)C(C)C(C)=O` (stereo not given), the AC50 in experiment [10] was 3.98 µM (inconclusive).
Regarding `Cc1cccc(OCCn2c(NC(=O)c3ccco3)nc3ccccc32)c1`, the EC50 is 4.74 µM (active) in experiment [11]; > 150 µM (not active) in experiment [12]; 7.32 µM (active) in [13]; 29.8 µM (active) in [5]; 1.69 µM (active) in experiment [6]. For the same compound, the IC50 in experiment [4] is 11 µM (active).
As for `Cc1cc(C2(c3cc(C)c(O)cc3C)OS(=O)(=O)c3ccccc32)c(C)cc1O`, the AC50 in experiment [10] was 7.94 µM (inconclusive).
In the case of `COC(=O)c1ccc(C23CC4(C2)[C@H](CN(C)[C@@H]4c2ccccc2)C3c2ccccc2)cc1` (stereo not given in full), the AC50 in experiment [10] is 12.6 µM (inconclusive).
Consider `CN1CCCc2cc3c(C(F)(F)F)cc(=O)oc3nc21`, for which the EC50 in experiment [8] is 25.7 µM (inconclusive); in [9], 24.9 µM (active).
In the case of `C=C1CCC(=O)C(C)CCC2C1CC2(C)C` (stereo not given) [DIHYDROCARYOPHYLLEN-5-ONE], the AC50 in [10] was 25.1 µM (inconclusive).
For `CCc1nnc2c3cnn(-c4ccccc4)c3ncn12`, the figures for the EC50 in experiment [1], in [2] and in experiment [3] were 113 µM (active), 5.12 µM (active) and > 120 µM (not active), respectively.
On to `COC(=O)c1cc2ccccn2c2c(C(=O)OC)c(C(=O)OC)cc1-2`, for which, in [4], the IC50 was > 79 µM (inactive).
As to `Cc1nc2ccccc2c(=O)[nH]1`, in experiment [4], the IC50 was > 79 µM (inactive).
Regarding `Cc1cc(Nc2nc3ccccc3nc2Cl)n(-c2ccccc2)n1`, the EC50 in [1], in experiment [2] and in experiment [3] was > 120 µM (not active) in each case.
Turning to `C=C1CC[C@@H]2O[C@@]2(C)CC[C@H]2[C@H]1CC2(C)C`, the AC50 in experiment [10] was 39.8 µM (inconclusive).
Turning to `Cc1ccc(N2C(=O)/C(=C/c3ccc(CN(CCC#N)S(C)(=O)=O)o3)C(=O)NC2=S)cc1C`, the EC50 is 9.89 µM (active) in experiment [8] and 15.5 µM (active) in experiment [9]. In addition, the AC50 in experiment [14] was 22.4 µM (inconclusive).
For `Cc1c(OCC(=O)NCCN2CCOCC2)ccc2c1oc(=O)c1ccccc12`, the IC50 in experiment [4] is > 79 µM (inactive).
As to `COc1ccc2occ(C(=O)c3coc4ccc(O)c(CN(C)C)c34)c2c1`, in experiment [4], the IC50 was > 79 µM (inactive).
Consider `COc1cc(C=O)c([N+](=O)[O-])cc1OC`, for which, in experiment [10], the AC50 was 25.1 µM (inconclusive).
As for `Cc1ccc(-c2nnc(O)c3ccccc23)cc1N`, the IC50 in experiment [4] is 34.5 µM (inactive).
For the compound `Cc1sc(/C=C2\C(=O)ON=C2c2ccccc2)cc1Br`, the values for the EC50 in experiment [8] and in experiment [9] were 7.46 µM (inconclusive) and 24.1 µM (inconclusive), respectively.
For `CCCCCCCCCc1ccc(O)cc1` [4-NONYLPHENOL], in experiment [10], the AC50 is 31.6 µM (inconclusive).
`N#Cc1ccc(C23CC4(C2)[C@H](CN(Cc2ccc(C(F)(F)F)cc2)[C@@H]4c2ccccc2)C3c2ccccc2)cc1` (stereo not given in full): the AC50 in experiment [10] is 25.1 µM (inconclusive).
As to `CC(C)CCn1cc[n+](C2=C([N-]S(=O)(=O)c3ccccc3)C(=O)c3ccccc3C2=O)c1`, the AC50 in experiment [7] was 4.76 µM (active).
Consider `COCCNC(=O)Cc1c(C)c2c(cc(C)c3c(C(C)(C)C)coc32)oc1=O`, for which the EC50 was 10.1 µM (active) in experiment [1], > 120 µM (not active) in experiment [2] and > 120 µM (not active) in experiment [3].
In the case of `COc1ccc2cc(-c3[nH]ncc3CN3CCCCO3)ccc2c1`, the EC50 is 25 µM (active) in experiment [1], > 120 µM (not active) in [2] and > 60 µM (not active) in [3].
`CCC1OC(=O)C(C)[C@@H](O[C@H]2C[C@@](C)(OC)C(O)C(C)O2)C(C)[C@@H](O[C@@H]2OC(C)CC(N(C)C)C2O)[C@@](C)(O)CC(C)C(=O)[C@@H](C)C(O)[C@]1(C)O` (stereo not given in full): the AC50 in [10] was 31.6 µM (inconclusive).
For the compound `O=C(CCN1C(=O)C2CC=C(Cl)CC2C1=O)N1CCCCC1` (stereo not given), the concentration giving a half-maximal response (EC50) in experiment [8] is 18.1 µM (active); in experiment [9] it was 29.5 µM (active).
With `CCCCC(=O)Nc1cc(C)c2c(=O)oc3ccccc3c2n1`, the IC50 in experiment [4] is > 79 µM (inactive).
In the case of `Cc1ccc(S(=O)(=O)N2CCOCC2)cc1NC(=O)CN(C)C1CCS(=O)(=O)C1` (stereo not given), the EC50 in experiment [8] and in [9] was > 300 µM (not active) throughout.
Consider `BrC1C(Br)C(Br)C(Br)C(Br)C1Br` (stereo not given), for which, in experiment [10], the AC50 was 15.8 µM (inconclusive).
In the case of `Cc1nc(/N=N\c2cc(S(=O)(=O)O)c3cc([N+](=O)[O-])cc(S(=O)(=O)O)c3c2)c(COP(=O)(O)O)c(C=O)c1O`, the AC50 in experiment [10] was 15.8 µM (inconclusive).

For the origin of these results see ChEMBL document CHEMBL1201862, “PubChem BioAssay data set” (2004).
